From the OPERA property sets (Mansouri et al. 2018)

| Structure (SMILES) | log10 Koc (L/kg) | log10 vapour pressure (mmHg) | melting point [°C] | ready biodegradability | boiling point [°C] | log10 biodegradation half-life (days) | log10 Henry constant (atm·m³/mol) |
| --- | --- | --- | --- | --- | --- | --- | --- |
| CCSC(=O)N(CC)C1CCCCC1 | 2.54 | -2.7 | 11.5 | not readily biodegradable | – | – | – |
| CCCCCCCCCCCCCCCC(=O)O | – | -6.42 | 61.8 | readily biodegradable | 352 | – | – |
| CC#CCCC | – | – | -89.6 | – | 84.5 | – | – |
| CCCCC(C)(O)CCC (stereo not given) | – | – | – | – | 180 | – | – |
| O=C(OCCOC(=O)C(Cl)(Cl)Cl)C(Cl)(Cl)Cl | – | – | 40 | – | – | – | – |
| Cc1ccc(O)c(C(C)C)c1 | – | – | 36.5 | – | 228 | – | – |
| CC1CC(C)NC(C)(C)C1 (stereo not given) | – | – | – | – | 156 | – | – |
| CCCCN=C=S | – | – | – | – | 168 | – | – |
| O=[N+]([O-])c1ccc2ccc3cccc4ccc1c2c34 | – | – | 155 | – | – | – | – |
| S=C=Nc1cccc(Cl)c1 | – | – | – | – | 250 | – | – |
| Brc1cccc(Oc2ccc(Br)c(Br)c2Br)c1 | – | -5.66 | – | – | – | – | – |
| c1ccc(CCCc2ccncc2)cc1 | – | – | – | – | 322 | – | – |
| O=Cc1cccc2c1CCOC2=O | – | – | 140 | – | – | – | – |
| CCN(CC)CCNc1ccc(CO)c2sc3ccccc3c(=O)c12 | – | – | 102 | – | – | – | – |
| CCOc1ccc2cc(O)c(O)cc2c1 | – | – | 132 | – | – | – | – |
| CC(C)(C)c1cccc2ccccc12 | – | – | -11.3 | – | 279 | – | – |
| O=c1c(O)c(-c2ccccc2)oc2cc(O)cc(O)c12 | – | – | 214 | – | – | – | – |
| C=C(C)c1ccc(C(=C)C)cc1 | – | – | 63.5 | – | – | – | – |
| O=C=NS(=O)(=O)Cl | – | – | -44 | – | 107 | – | – |
| ClCCOC(c1ccccc1)c1ccccc1 | – | – | – | not readily biodegradable | – | – | – |
| CC(/C=C/C=C(C)/C=C/[C@@]1(O)C(C)(C)CCC[C@@]1(C)O)=C\C=C\C=C(C)\C=C\C(=O)O | – | – | 213 | – | – | – | – |

| Structure (SMILES) | log10 Koc (L/kg) | log10 vapour pressure (mmHg) | melting point [°C] | ready biodegradability | boiling point [°C] | log10 biodegradation half-life (days) | log10 Henry constant (atm·m³/mol) |
| --- | --- | --- | --- | --- | --- | --- | --- |
| Cc1nonc1C | – | – | -7 | – | 156 | – | – |
| CC[C@@](C)(O)C(=O)O | – | – | 74 | – | – | – | – |
| CC(/C=C/C=C(\C)C(=O)O[C@@H]1O[C@H](CO[C@@H]2O[C@H](CO)[C@@H](O)[C@H](O)[C@H]2O)[C@@H](O)[C@H](O)[C@H]1O)=C\C=C\C=C(C)\C=C\C=C(/C)C(=O)O[C@@H]1O[C@H](CO[C@@H]2O[C@H](CO)[C@@H](O)[C@H](O)[C@H]2O)[C@@H](O)[C@H](O)[C@H]1O | – | – | 186 | – | – | – | – |
| CCCCCCCCCCCCCCCCCCCCCCCCCCCCC | – | -9.37 | 63.7 | readily biodegradable | 441 | 2 | – |
| CCCc1ccco1 | – | – | – | – | 115 | – | – |
| CCCCCCC(C)CC (stereo not given) | – | – | -84.8 | – | 168 | – | – |
| COc1nn(CSP(=S)(OC)OC)c(=O)s1 | 1.53 | -5.47 | 39 | – | – | – | – |
| COc1ccc(-c2cc(=O)c3c(O)cc(O)cc3o2)cc1 | – | – | 263 | – | – | – | – |
| O=[N+]([O-])c1cccc(SSc2cccc([N+](=O)[O-])c2)c1 | – | – | 84 | – | – | – | – |
| c1ccc([Se]c2ccccc2)cc1 | – | – | 2.5 | – | 302 | – | – |
| C1CC2CC12 (stereo not given) | – | 2.56 | – | – | 45.5 | – | – |
| Fc1ccccc1F | – | 1.73 | -34 | not readily biodegradable | 94 | – | – |
| CC(CCc1ccccc1)NCC(O)c1ccc(O)c(C(N)=O)c1 (stereo not given) | – | – | 188 | – | – | – | – |
| NN=C(c1ccccc1)c1ccccc1 | – | – | 96.5 | – | – | – | – |
| COP(=S)(OC)Oc1ccc(SC)c(C)c1 | 3.18 | -4.98 | 7.5 | – | – | – | – |
| Oc1ccc(Cl)cc1Cc1ccccc1 | – | -5.85 | 48.5 | readily biodegradable | – | – | – |
| CCCCCCCOCCCCCCC | – | – | – | – | 258 | – | – |
| CCN(CC)CCN(CC)CC | – | – | – | – | 192 | – | – |
| CC(C)c1ccc(N)cc1 | – | -1.08 | – | not readily biodegradable | 225 | – | – |
| O=[N+]([O-])c1ccc(/C=C/c2cccc(CO)n2)o1 | – | – | 170 | – | – | – | – |
| CC=C(Br)Br | – | – | – | – | 125 | – | – |

| Structure (SMILES) | log10 Koc (L/kg) | log10 vapour pressure (mmHg) | melting point [°C] | ready biodegradability | boiling point [°C] | log10 biodegradation half-life (days) | log10 Henry constant (atm·m³/mol) |
| --- | --- | --- | --- | --- | --- | --- | --- |
| N#CC#N | – | 3.63 | -27.9 | – | – | – | – |
| Oc1ccccc1C(F)(F)F | – | – | 45.5 | – | 148 | – | – |
| O=C1CCCCC1 | – | 0.636 | -31 | readily biodegradable | 155 | – | -5.05 |
| CC(C)C1CCC(Cc2ccc(Cl)cc2)C1(O)Cn1cncn1 (stereo not given) | – | -7.4 | 89 | – | – | – | – |
| C#CCC | – | 3.15 | -126 | – | 8 | – | – |
| CCCCCCCCCCCC(=O)OCC(O)C1OCC(O)C1O (stereo not given) | – | – | – | readily biodegradable | – | – | – |
| CC(=O)OCC(COC(C)=O)OC(C)=O | – | -2.61 | – | readily biodegradable | 259 | – | – |
| CCCC(C)c1ccccc1 (stereo not given) | – | – | – | – | 199 | – | – |
| CC12CCC(C1)C(C)(C)C2=O (stereo not given) | – | -0.0876 | 5.37 | – | – | – | – |
| CCC(CC)(CO)CO | – | – | 61.5 | – | 240 | – | – |
| CCCCN(C(C)=O)c1ccccc1 | – | – | 24.5 | – | 281 | – | – |
| Nc1ccc(N)c(N)c1 | – | – | 97.3 | – | 340 | – | – |
| C[C@@H](N)[C@@H](O)c1ccccc1 | – | – | 101 | – | – | – | – |
| CCCCCCCCCCCCCCCCCCCCCC1CCCC1 | – | – | 42 | – | 420 | – | – |
| Fc1ccccc1Cl | – | – | -43 | – | 138 | – | – |
| COc1nccnc1NS(=O)(=O)c1ccc(N)cc1 | – | – | 176 | – | – | – | – |
| CCOC(=O)C(Br)Br | – | – | – | – | 194 | – | – |
| Clc1ccc(-c2c(Cl)cc(Cl)c(Cl)c2Cl)c(Cl)c1 | – | – | 73 | – | – | – | – |
| CCCc1ccc(C(=O)O)cc1 | – | – | 143 | – | – | – | – |
| CCCC(=O)N(CSP(=S)(OC)OC)c1ccccc1Cl | – | – | 42 | – | – | – | – |
| CCOC(=O)C(=O)C(=O)OCC | – | – | -30 | – | 210 | – | – |
